This is an account of results in patent US20240270762A1, “PENICILLIN-BINDING PROTEIN INHIBITORS” (priority 2021, published 2024).

pEC50: −log10 of the molar value. Values after ≈ are worked out from the molar mass of the structure shown.

For one experiment, the system named is E. coli AG100. The experiment is described as follows: microbe, parasite or virus in culture. It counts as cell-based. To be noted: Escherichia coli, AG100, read-out: MIC E. coli AG100.
Experiment [1] concerns P. aeruginosa (ΔmexAB-oprM). The experiment is described as follows: Broth microdilution MIC in CAMHB. As to conditions: Pseudomonas aeruginosa; read-out: MIC P. aeruginosa ΔmexAB-oprM. It counts as cell-based.
The subject of the next experiment is E. coli ATCC 25922. The experiment is described as follows: microbe, parasite or virus in culture. It counts as cell-based. As to conditions: Escherichia coli, ATCC25922, read-out: MIC E. coli 25922.
The subject of the next experiment is P. aeruginosa ATCC 35151. Description: microbe, parasite or virus in culture. It counts as cell-based. As to conditions: Pseudomonas aeruginosa, ATCC35151, read-out: MIC P. aeruginosa ATCC 35151.
The subject of a further experiment is P. aeruginosa ATCC 27853. The experiment is described as follows: microbe, parasite or virus in culture. It counts as cell-based. As to conditions: Pseudomonas aeruginosa, ATCC27853, read-out: MIC P. aeruginosa ATCC 27853.
The subject of another experiment is E. coli 901C. The experiment is described as follows: microbe, parasite or virus in culture. It counts as cell-based. As to conditions: Escherichia coli, read-out: MIC E. coli 901C.
The target of experiment [2] is T1, PBP2 from Neisseria gonorrhoeae (FA19) (Neisseria gonorrhoeae, UniProt P08149).
T1 construct: made in house
T1 sequence (P08149 whole entry): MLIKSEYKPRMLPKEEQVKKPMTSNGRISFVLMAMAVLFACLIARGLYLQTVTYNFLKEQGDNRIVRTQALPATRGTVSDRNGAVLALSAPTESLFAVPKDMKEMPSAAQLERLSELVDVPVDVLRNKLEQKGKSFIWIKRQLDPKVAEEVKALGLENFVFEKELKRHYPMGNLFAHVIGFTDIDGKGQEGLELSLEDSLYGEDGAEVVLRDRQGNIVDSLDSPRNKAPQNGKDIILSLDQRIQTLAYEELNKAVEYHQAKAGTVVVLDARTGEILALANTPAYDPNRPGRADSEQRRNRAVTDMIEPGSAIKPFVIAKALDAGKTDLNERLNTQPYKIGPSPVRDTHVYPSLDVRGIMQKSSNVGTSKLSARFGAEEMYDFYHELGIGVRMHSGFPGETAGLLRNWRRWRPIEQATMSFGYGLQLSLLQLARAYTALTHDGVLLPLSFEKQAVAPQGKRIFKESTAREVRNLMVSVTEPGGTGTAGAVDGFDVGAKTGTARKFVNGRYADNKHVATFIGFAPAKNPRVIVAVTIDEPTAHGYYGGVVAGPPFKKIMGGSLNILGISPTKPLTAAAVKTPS
Description: Bocillin-FL fluorescence polarization competition binding, N. gonorrhoeae PBP2. To be noted: fluorescence polarization competition binding assay using Bocillin-FL, read-out: N. gonorrhoeae PBP2 Potency. The method, boiled down: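 Fluorescence polarization competition with 0.1 μM Bocillin-FL (fluorescent penicillin V) against 0.25 μM N. gonorrhoeae FA19 PBP2 in 50 mM Hepes pH 8.0, 300 mM NaCl, 10% glycerol. Boronic acid inhibitors were preincubated with PBP, then Bocillin-FL was added and FP read (490/520 nm) up to 60 min. EC50 is the concentration halving PBP-bound Bocillin-FL.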
For orientation: Polarisation of emitted light reports the rotation of a fluorescent probe.

The next experiment relates to A. baumannii ATCC 19606. Description: microbe, parasite or virus in culture. It counts as cell-based. To be noted: Acinetobacter baumannii, ATCC19606, read-out: MIC, A. baumannii ATCC 19606.
Another experiment deals with K. pneumoniae 848844. Description: microbe, parasite or virus in culture. It counts as cell-based. As to conditions: Klebsiella pneumoniae, 848844, read-out: MIC K. pneumoniae 848844.
Another experiment deals with E. coli AG100A. The experiment is described as follows: Broth microdilution MIC in CAMHB. It counts as cell-based. To be noted: Escherichia coli, read-out: MIC E. coli AG100A. For orientation: Dilution methods test growth across graded concentrations, often in twofold steps.
In the next experiment the test system is K. pneumoniae UMM. The experiment is described as follows: microbe, parasite or virus in culture. It counts as cell-based. To be noted: Klebsiella pneumoniae, read-out: MIC K. pneumoniae UMM.
For the next experiment, the system named is K. pneumoniae SI-117. Description: microbe, parasite or virus in culture. It counts as cell-based. To be noted: Klebsiella pneumoniae, SI117, read-out: MIC K. pneumoniae SI-117.
The subject of the next experiment is B. pseudomallei Bp82. The experiment is described as follows: microbe, parasite or virus in culture. It counts as cell-based. To be noted: Burkholderia pseudomallei, BP82, read-out: Minimum inhibitory concentration, B. pseudomallei Bp82.

Turning to `CS(=O)(=O)N1CCN(C(=O)N[C@H](C(=O)N[C@H]2Cc3cccc(C(=O)O)c3OB2O)c2ccc(P(=O)(O)O)cc2)C1=O` (single isomer, unassigned) [Example 5], the MIC with E. coli AG100 was 32 to 64 µg/mL (≈ 52.4 to 105 µM); in [1] it was 32 to 64 µg/mL (≈ 52.4 to 105 µM); with E. coli ATCC 25922, more than 128 µg/mL; with P. aeruginosa ATCC 35151, 8 to 16 µg/mL (≈ 13.1 to 26.2 µM); in the experiment on P. aeruginosa ATCC 27853 it was more than 128 µg/mL; in the experiment with E. coli 901C, less than 1 µg/mL. Moreover, the MIC was more than 128 µg/mL in the experiment on A. baumannii ATCC 19606; more than 128 µg/mL with K. pneumoniae 848844; 32 to 64 µg/mL (≈ 52.4 to 105 µM) in the experiment with E. coli AG100A; more than 128 µg/mL with K. pneumoniae UMM; more than 128 µg/mL in the experiment with K. pneumoniae SI-117. For the same molecule, the pEC50 in [2] was more than 5.00.

Regarding `CS(=O)(=O)N1CCN(C(=O)N[C@@H](C(=O)N[C@H]2Cc3cccc(C(=O)O)c3OB2O)c2ccc(P(=O)(O)O)cc2)C1=O` (single isomer, unassigned) [Example 6], the MIC with E. coli AG100 is 8 to 16 µg/mL (≈ 13.1 to 26.2 µM); in experiment [1] it was 8 to 16 µg/mL (≈ 13.1 to 26.2 µM); with E. coli ATCC 25922 it was 32 to 64 µg/mL (≈ 52.4 to 105 µM); in the experiment with P. aeruginosa ATCC 35151 it was less than 1 µg/mL; in the experiment on P. aeruginosa ATCC 27853, more than 128 µg/mL; in the experiment on E. coli 901C it was less than 1 µg/mL. The MIC in the experiment on A. baumannii ATCC 19606 was 8 to 16 µg/mL (≈ 13.1 to 26.2 µM); with K. pneumoniae 848844, more than 128 µg/mL; in the experiment with E. coli AG100A, 8 to 16 µg/mL (≈ 13.1 to 26.2 µM); in the experiment with K. pneumoniae UMM, 32 to 64 µg/mL (≈ 52.4 to 105 µM); in the experiment with K. pneumoniae SI-117, more than 128 µg/mL. In addition, in experiment [2], the pEC50 is more than 5.00.

As for `CCN1CCN(C(=O)NC(C(=O)N[C@H]2Cc3cccc(C(=O)O)c3OB2O)c2ccc(P(=O)(O)O)cc2F)C(=O)C1=O` (stereo partly drawn) [Example 1, (3R)-3-(2-(4-ethyl-2,3-dioxopiperazine-1-carboxamido)-2-(2-fluoro-4-phosphonophenyl)acetamido)-2-hydroxy-3,4-dihydro-2H-benzo[e][1,2]oxaborinine-8-carboxylic acid], the MIC was 32 to 64 µg/mL (≈ 52.8 to 106 µM) with E. coli AG100; 32 to 64 µg/mL (≈ 52.8 to 106 µM) in experiment [1]; more than 128 µg/mL with E. coli ATCC 25922; less than 1 µg/mL in the experiment with P. aeruginosa ATCC 35151; more than 128 µg/mL in the experiment on P. aeruginosa ATCC 27853; less than 1 µg/mL in the experiment with E. coli 901C. Besides, the MIC in the experiment with A. baumannii ATCC 19606 was 32 to 64 µg/mL (≈ 52.8 to 106 µM); with K. pneumoniae 848844 it was more than 128 µg/mL; in the experiment on E. coli AG100A it was 8 to 16 µg/mL (≈ 13.2 to 26.4 µM); in the experiment on K. pneumoniae UMM, 32 to 64 µg/mL (≈ 52.8 to 106 µM); in the experiment on K. pneumoniae SI-117, more than 128 µg/mL. Also, the pEC50 in [2] is more than 5.00.

On to `CCN1CCN(C(=O)NC(C(=O)N[C@H]2Cc3cccc(C(=O)O)c3OB2O)c2cc(P(=O)(O)O)ccc2F)C(=O)C1=O` (stereo partly drawn) [Example 2, (3R)-3-(2-(4-ethyl-2,3-dioxopiperazine-1-carboxamido)-2-(2-fluoro-5-phosphonophenyl)acetamido)-2-hydroxy-3,4-dihydro-2H-benzo[e][1,2]oxaborinine-8-carboxylic acid], for which the MIC with E. coli AG100 is 32 to 64 µg/mL (≈ 52.8 to 106 µM); in experiment [1], 8 to 16 µg/mL (≈ 13.2 to 26.4 µM); in the experiment with E. coli ATCC 25922 it was more than 128 µg/mL; with P. aeruginosa ATCC 35151, less than 1 µg/mL; in the experiment on P. aeruginosa ATCC 27853 it was more than 128 µg/mL; in the experiment with E. coli 901C, less than 1 µg/mL. The MIC in the experiment with A. baumannii ATCC 19606 was more than 128 µg/mL; in the experiment on K. pneumoniae 848844, more than 128 µg/mL; in the experiment with E. coli AG100A, 32 to 64 µg/mL (≈ 52.8 to 106 µM); in the experiment with K. pneumoniae UMM, 32 to 64 µg/mL (≈ 52.8 to 106 µM); with K. pneumoniae SI-117 it was more than 128 µg/mL. Also, the pEC50 in [2] is more than 5.00.

`NCCN1CCN(C(=O)NC(C(=O)N[C@H]2Cc3cccc(C(=O)O)c3OB2O)c2ccc(P(=O)(O)O)cc2)C(=O)C1=O` (stereo partly drawn) [Example 3, (3R)-3-(2-(4-(2-aminoethyl)-2,3-dioxopiperazine-1-carboxamido)-2-(4-phosphonophenyl)acetamido)-2-hydroxy-3,4-dihydro-2H-benzo[e][1,2]oxaborinine-8-carboxylic acid]: the MIC in the experiment with E. coli AG100 was 32 to 64 µg/mL (≈ 53 to 106 µM); in experiment [1], 32 to 64 µg/mL (≈ 53 to 106 µM); with E. coli ATCC 25922, 32 to 64 µg/mL (≈ 53 to 106 µM); in the experiment on P. aeruginosa ATCC 35151, less than 1 µg/mL; with P. aeruginosa ATCC 27853 it was more than 128 µg/mL; in the experiment on E. coli 901C it was 2 to 4 µg/mL (≈ 3.32 to 6.63 µM). The MIC was 32 to 64 µg/mL (≈ 53 to 106 µM) in the experiment with A. baumannii ATCC 19606; more than 128 µg/mL in the experiment with K. pneumoniae 848844; 8 to 16 µg/mL (≈ 13.3 to 26.5 µM) in the experiment with E. coli AG100A; 32 to 64 µg/mL (≈ 53 to 106 µM) in the experiment on K. pneumoniae UMM; more than 128 µg/mL in the experiment with K. pneumoniae SI-117. Besides, the pEC50 in experiment [2] was more than 5.00.

`O=C(O)c1cccc2c1OB(O)[C@@H](NC(=O)C(NC(=O)N1CCN(CC(F)(F)F)C(=O)C1=O)c1ccc(P(=O)(O)O)cc1)C2` (stereo partly drawn) [Example 4, (3R)-3-(2-(2,3-dioxo-4-(2,2,2-trifluoroethyl)piperazine-1-carboxamido)-2-(4-phosphonophenyl)acetamido)-2-hydroxy-3,4-dihydro-2H-benzo[e][1,2]oxaborinine-8-carboxylic acid]: the MIC is more than 128 µg/mL in the experiment with E. coli AG100; 32 to 64 µg/mL (≈ 49.8 to 99.7 µM) in [1]; more than 128 µg/mL in the experiment with E. coli ATCC 25922; 8 to 16 µg/mL (≈ 12.5 to 24.9 µM) with P. aeruginosa ATCC 35151; more than 128 µg/mL in the experiment with P. aeruginosa ATCC 27853; less than 1 µg/mL in the experiment on E. coli 901C. Moreover, the MIC in the experiment on A. baumannii ATCC 19606 is more than 128 µg/mL; in the experiment with K. pneumoniae 848844, more than 128 µg/mL; in the experiment with E. coli AG100A, 8 to 16 µg/mL (≈ 12.5 to 24.9 µM); in the experiment on K. pneumoniae UMM it was more than 128 µg/mL; in the experiment with K. pneumoniae SI-117, more than 128 µg/mL. Further, the pEC50 in experiment [2] was more than 5.00.

In the case of `O=C(NCCN1CCN(C(=O)N[C@@H](C(=O)N[C@H]2Cc3ccc(F)c(C(=O)O)c3OB2O)c2cc(F)c(O)c(O)c2Cl)C1=O)Nc1ccc(O)cc1` [Example 279, (R)-3-((R)-2-(2-chloro-5-fluoro-3,4-dihydroxyphenyl)-2-(3-(2-(3-(4-hydroxyphenyl)ureido)ethyl)-2-oxoimidazolidine-1-carboxamido)acetamido)-7-fluoro-2-hydroxy-3,4-dihydro-2H-benzo[e][1,2]oxaborinine-8-carboxylic acid], the MIC with B. pseudomallei Bp82 is less than 1 µg/mL.
